Structures can show the parent of a compound that is named as a salt.
Experiments:
[1] = Rodent brain penetration study; settings: male, Wistar, rat, po, 10 mg/kg
Procedure: Three animals were housed in each cage. Animals were given water and food ad libitum throughout the experiment, and maintained on a 12 hours light/dark cycle.
Brain penetration was determined in discrete manner in rats. […] After acclimatization the rats were grouped according to the weight in each group, 3 animals were kept in individual cage and allowed free access to food and water. At each time point (0.50, 1, and 2 hours) n=3 animals were used.
The compounds of formula (I) was suitably preformulated and administered orally at (free base equivalent) 10 mg/kg. Blood samples were removed via, cardiac puncture by using isoflurane anesthesia the animals were sacrificed to collect brain tissue. […] The concentrations of the NCE compound in plasma and Brain were determined using LC-MS/MS method.
Extent of brain-plasma ratio was calculated (Cb/Cp).

[2] = target: recombinant human 5-HT4 receptor (Homo sapiens (Human), UniProt Q13639); assay: Determination of EC50 values for 5-HT4 receptor (CHO cells, pCRE-Luc reporter); format: cell-based; settings: CHO cells expressing human 5-HT4 receptor, luciferase activity, 4 hours incubation
Procedure: A stable CHO cell line expressing recombinant human 5-HT4 receptor and pCRE-Luc reporter system was used for cell-based assay. The assay offers a non-radioactive based approach to determine binding of a compound to GPCRs. In this specific assay, the level of intracellular cyclic AMP which is modulated by activation or inhibition of the receptor is measured. The recombinant cells harbor luciferase reporter gene under the control of cAMP response element.
The above cells were grown in 96 well clear bottom white plates in Hams F12 medium containing 10% fetal bovine serum (FBS). Prior to the addition of compounds or standard agonist, cells were serum starved overnight. Increasing concentrations of test compounds were added in OptiMEM medium to the cells. The incubation was continued at 37° C. in CO2 incubator for 4 hours. Medium was removed and cells were washed with phosphate buffered saline. The cells were lysed and luciferase activity was measured in a Luminometer. Luminescence units were plotted against the compound concentrations using Graphpad software.

[3] = Rodent pharmacokinetic study; format: in vivo, Male Wister rats; settings: plasma
Procedure: Three to five animals were housed in each cage. […] Animals were fasted over night before oral dosing (p.o) and food pellets were allowed 2 hours post dosing, whereas intravenous dosing food and water were provided as ad libitum. Three rats were dosed with compounds of formula (I) (10 mg/kg) orally and intravenously (05 mg/kg).
At each time point blood was collected through jugular vein and immediately replenish with an equivalent volume of normal saline from freely moving rats. Collected blood was transferred into a labeled eppendr off containing 10 μL of heparin as anticoagulant. Typically blood samples were collected as following time points: Pre dose, 0.08 (only i.v.), 0.25, 0.5, 1, 2, 4, 6, 8, and 24 hours post dose (n=3). Blood was centrifuged at 4000 rpm for 10 minutes. Plasma was prepared and stored frozen at −20° C. until analysis.
Pharmacokinetic parameters Cmax, Tmax, AUCt, T1/2 and Bioavailability were calculated by non-compartmental model using standard non-compartmental model by using WinNonLin 5.0.1 or Phoenix WinNonlin 6.2 version Software package.

Male Wister rats = assay: Object recognition task model; format: in vivo; settings: p.o., rat
Procedure: (§1) The cognition enhancing properties of compounds of this invention were estimated by using this model.
Male Wister rats (230-280 grams) were used as experimental animals. Four animals were housed in each cage. […] Also the rats were habituated to individual arenas for 1 hour in the absence of any objects.
One group of 12 rats received vehicle (1 mL/Kg) orally and another set of animals received compound of the formula (I) either orally or i.p., before one hour of the familiar (T1) and choice trial (T2).
The experiment was carried out in a 50×50×50 cm open field made up of acrylic. In the familiarization phase, (T1), the rats were placed individually in the open field for 3 minutes, in which two identical objects (plastic bottles, 12.5 cm height×5.5 cm diameter) covered in yellow masking tape alone (a1 and a2) were positioned in two adjacent corners, 10 cms from the walls. After 24 hours of the (T1) trial for long-term memory test, the same rats were placed in the same arena as they were placed in T1 trial. Choice phase (T2) rats were allowed to explore the open field for 3 minutes in presence of one familiar object (a3) and one novel object (b) (Amber color glass bottle, 12 cm high and 5 cm in diameter). Familiar objects presented similar textures, colors and sizes. During the T1 and T2 trial, explorations of each object (defined as sniffing, licking, chewing or having moving vibrissae whilst directing the nose towards the object at a distance of less than 1 cm) were recorded separately by stopwatch. […] T1 is the total time spent exploring the familiar objects (a1+a2). T2 is the total time spent exploring the familiar object and novel object (a3+b).

rats = assay: Radial arm maze, reversal of scopolamine induced amnesia; format: in vivo; settings: p.o., rat
Description: as §1

[4] = Wistar/Male rat, 5 mg/kg, intravenous (bolus)
[5] = Wistar/Male rat, 10 mg/kg oral vs 5 mg/kg intravenous
[6] = Wistar/Male rat, 10 mg/kg, oral (gavage)
[7] = male, Wistar, rat, po, 10 mg/kg

Chain of recombinant human 5-HT4 receptor (Q13639 whole entry): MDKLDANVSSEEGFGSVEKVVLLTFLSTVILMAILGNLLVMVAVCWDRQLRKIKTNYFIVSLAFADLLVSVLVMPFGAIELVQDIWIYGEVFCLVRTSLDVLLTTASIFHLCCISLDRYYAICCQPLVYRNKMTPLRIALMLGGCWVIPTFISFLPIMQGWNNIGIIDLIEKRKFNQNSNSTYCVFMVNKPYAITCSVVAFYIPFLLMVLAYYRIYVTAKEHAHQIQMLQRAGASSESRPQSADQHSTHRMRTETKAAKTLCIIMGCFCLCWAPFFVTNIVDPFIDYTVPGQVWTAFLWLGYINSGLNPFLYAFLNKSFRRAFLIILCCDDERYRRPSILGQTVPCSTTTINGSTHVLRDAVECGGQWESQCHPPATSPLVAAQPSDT

EC50 [2] [nM]	AUC(0-t) [3, 4] [ng·h/mL]	Cmax [3, 4] [ng/mL]	Tmax [3, 4] [min]	half-life [3, 4] [min]	bioavailability [3, 5] [%]	AUC(0-t) [3, 6] [ng·h/mL]	Cmax [3, 6] [ng/mL]	Tmax [3, 6] [min]	half-life [3, 6] [min]	SMILES	Kp ([1]; brain homogenate and plasma)	Exploration time mean ± S.E.M, Familiar object (Male Wister rats; 3 mg/kg) [s]	Exploration time mean ± S.E.M, Novel object (Male Wister rats; 3 mg/kg) [s]	Inference (Male Wister rats; 3 mg/kg)	also measured
6.2	–	–	–	–	–	–	–	–	–	Nc1c(Cl)cc(-c2nnc(C3CCN(CC4CCC4)CC3)o2)c2c1OCCO2 [Example 15, 6-Chloro-8-[5-(1-cyclobutylmethyl-piperidin-4-yl)-[1,3,4]oxadiazol-2-yl]-2,3-dihydro-benzo[1,4]dioxin-5-ylamine]	–	–	–	–	Exploration time mean ± S.E.M, Familiar object (Male Wister rats; 1 mg/kg): 12.03 ± 1.73 s; Exploration time mean ± S.E.M, Novel object (Male Wister rats; 1 mg/kg): 19.14 ± 3.02 s; Inference (Male Wister rats; 1 mg/kg): Active
6.8	2370 ± 90	1860 ± 115	4.8	133 ± 13.8	101 ± 1	4814 ± 30	1760 ± 264	30	88.8 ± 10.8	CCOC(=O)N1CCC(N2CCC(c3nnc(-c4cc(Cl)c(N)c5c4OCCC5)o3)CC2)CC1 [Example 19, 4-[5-(5-Amino-6-chloro-chroman-8-yl)-[1,3,4]oxadiazol-2-yl]-[1,4′]bipiperidinyl-1′-carboxylic acid ethyl ester]	–	–	–	–	Exploration time mean ± S.E.M, Familiar object (Male Wister rats; 10 mg/kg): 7.19 ± 0.65 s; Exploration time mean ± S.E.M, Novel object (Male Wister rats; 10 mg/kg): 13.21 ± 2.1 s; Inference (Male Wister rats; 10 mg/kg): Active
13.3	–	–	–	–	–	–	–	–	–	Nc1c(Cl)cc(-c2nnc(C3CCN(C4CCC4)CC3)o2)c2c1OCCO2 [Example 16, 6-Chloro-8-[5-(1-cyclobutyl-piperidin-4-yl)-[1,3,4]oxadiazol-2-yl]-2,3-dihydro-benzo[1,4]dioxin-5-ylamine]	–	–	–	–	Exploration time mean ± S.E.M, Familiar object (Male Wister rats; 10 mg/kg): 8.03 ± 1.58 s; Exploration time mean ± S.E.M, Novel object (Male Wister rats; 10 mg/kg): 13.94 ± 1.76 s; Inference (Male Wister rats; 10 mg/kg): Active

The next lines start with the compound.

SMILES	EC50 [2] [nM]	AUC(0-t) [3, 4] [ng·h/mL]	Cmax [3, 4] [ng/mL]	Tmax [3, 4] [min]	half-life [3, 4] [min]	bioavailability [3, 5] [%]	AUC(0-t) [3, 6] [ng·h/mL]	Cmax [3, 6] [ng/mL]	Tmax [3, 6] [min]	half-life [3, 6] [min]	Kp ([1]; brain homogenate and plasma)	Exploration time mean ± S.E.M, Familiar object (Male Wister rats; 3 mg/kg) [s]	Exploration time mean ± S.E.M, Novel object (Male Wister rats; 3 mg/kg) [s]	Inference (Male Wister rats; 3 mg/kg)	also measured
COCCN1CCC(c2nnc(-c3cc(Cl)c(N)c4c3OCCC4)o2)CC1 [Example 8, 6-Chloro-8-{5-[1-(2-methoxy-ethyl)-piperidin-4-yl]-[1,3,4]oxadiazol-2-yl}-chroman-5-ylamine]	15.6	1320 ± 527	1280 ± 239	4.8	61.8 ± 8.4	72 ± 22	1760 ± 89	918 ± 46	19.8 ± 8.4	60.6 ± 4.8	0.56 ± 0.08	10.45 ± 1.162	17.59 ± 2.95	Active	–
CC(C)n1nc(-c2nnc(C3CCN(C4CCC4)CC3)o2)c2ccccc21 [Example 37, 3-[5-(1-Cyclobutyl-piperidin-4-yl)-[1,3,4]oxadiazol-2-yl]-1-isopropyl-1H-indazole]	–	–	–	–	–	–	–	–	–	–	–	–	–	–	Kp ([1]; in vivo): 5.68 ± 1.74
CC(C)n1nc(-c2nnc(C3CCN(C4CCOCC4)CC3)o2)c2ccccc21 [Example 48, 1-Isopropyl-3-{5-[1-(tetrahydro-pyran-4-yl)-piperidin-4-yl]-[1,3,4]oxadiazol-2-yl}-1H-indazole oxalate salt]	–	–	–	–	–	–	–	–	–	–	–	–	–	–	Kp ([1]; in vivo): 2.55 ± 0.32
Nc1c(Cl)cc(-c2nnc(CCCN3CCCCC3)o2)c2c1CCCO2.O=C(O)C(O)C(O)C(=O)O [Example 20, 6-Chloro-8-[5-(3-piperidin-1-yl-propyl)-[1,3,4]oxadiazol-2-yl]-chroman-5-ylamine tartarate salt]	104	867 ± 173	976 ± 305	4.8	48 ± 3.6	46 ± 9	790 ± 153	602 ± 35	15	61.8 ± 1.2	0.5 ± 0.07	4.69 ± 0.79	11.04 ± 1.33	Active	–
Nc1c(Cl)cc(-c2nnc(C3CCN(CC4CCOCC4)CC3)o2)c2c1CCCO2.O=C(O)C(=O)O [Example 26, 6-Chloro-8-{5-[1-(tetrahydro-pyran-4-ylmethyl)-piperidin-4-yl]-[1,3,4]oxadiazol-2-yl}-chroman-5-ylamine oxalate salt]	18	–	–	–	–	–	–	–	–	–	–	7.12 ± 1.44	14.42 ± 2.22	Active	–
Nc1c(Cl)cc(-c2nnc(C3CCN(C4CCC4)CC3)o2)c2c1CCCO2 [Example 14, 6-Chloro-8-[5-(1-cyclobutyl-piperidin-4-yl)-[1,3,4]oxadiazol-2-yl]-chroman-5-ylamine]	1.3	773 ± 45	783 ± 124	4.8	73.2 ± 15.6	42 ± 10	645 ± 136	513 ± 125	15	57.6 ± 6.6	2.24 ± 0.09	–	–	–	Exploration time mean ± S.E.M, Familiar object (Male Wister rats; 1 mg/kg): 5.06 ± 1.32 s; Exploration time mean ± S.E.M, Novel object (Male Wister rats; 1 mg/kg): 12.68 ± 1.14 s; Inference (Male Wister rats; 1 mg/kg): Active; Reversal of Scopolamine Induced amnesia - Effective dose range (rats): 1-10 mg/kg, p.o.
CC(C)CCN1CCC(c2nnc(-c3cc(Cl)c(N)c4c3OCCC4)o2)CC1 [Example 9, 6-Chloro-8-{5-[1-(3-methyl-butyl)-piperidin-4-yl]-[1,3,4]oxadiazol-2-yl}-chroman-5-ylamine]	2.4	836 ± 374	792 ± 111	4.8	82.8 ± 39.6	66 ± 21	1210 ± 941	412 ± 177	40.2 ± 14.4	89.4 ± 38.4	–	11.21 ± 2.18	16.47 ± 1.18	Active	–
Nc1c(Cl)cc(-c2nnc(C3CCN(C4CCOCC4)CC3)o2)c2c1CCCO2.O=C(O)C(=O)O [Example 25, 6-Chloro-8-{5-[1-(tetrahydro-pyran-4-yl)-piperidin-4-yl]-[1,3,4]oxadiazol-2-yl}-chroman-5-ylamine oxalate salt]	5.7	–	–	–	–	–	–	–	–	–	–	5.93 ± 0.87	14.70 ± 2.34	Active	–
Nc1c(Cl)cc(-c2nnc(CC3CCN(C4CCCC4)CC3)o2)c2c1CCCO2.O=C(O)C(=O)O [Example 21, 6-Chloro-8-[5-(1-cyclopentyl-piperidin-4-ylmethyl)-[1,3,4]oxadiazol-2-yl]-chroman-5-ylamine oxalate salt]	71.2	–	–	–	–	–	–	–	–	–	0.62 ± 0.05	–	–	–	AUC(0-t) ([3]; male, Wistar, rat, iv, 5 mg/kg): 876 ± 65 ng·h/mL; Cmax ([3]; male, Wistar, rat, iv, 5 mg/kg): 750 ± 14 ng/mL; Tmax ([3]; male, Wistar, rat, iv, 5 mg/kg): 4.8 min; half-life ([3]; male, Wistar, rat, iv, 5 mg/kg): 107 ± 25.8 min; AUC(0-t) [3, 7]: 1490 ± 72 ng·h/mL; Cmax [3, 7]: 553 ± 53 ng/mL; Tmax [3, 7]: 25.2 ± 7.2 min; bioavailability [3, 7]: 85 ± 4%; half-life [3, 7]: 94.2 ± 6.6 min
Nc1c(Cl)cc(-c2nnc(C3CCN(C4CC4)CC3)o2)c2c1CCCO2.Nc1c(Cl)cc(-c2nnc(C3CCN(C4CC4)CC3)o2)c2c1CCCO2.O=C(O)/C=C/C(=O)O [Example 1, 6-Chloro-8-[5-(1-cyclopropyl-piperidin-4-yl)-[1,3,4]oxadiazol-2-yl]-chroman-5-ylamine hemi fumarate]	28.5	–	–	–	–	–	–	–	–	–	–	5.08 ± 0.1	13.80 ± 2.20	Active	–

— patent publication US9636335B2, “Heteroaryl compounds as 5-HT4 receptor ligands” (Suven Life Sciences Ltd, priority 2011, dated 2017)
